Assay results published in PMC10142505, “Synthesis, Evaluation of Enzyme Inhibition and Redox Properties of Potential Dual COX-2 and 5-LOX Inhibitors” (Pharmaceuticals, 2023).
Marks after values point to notes of the source that are not given here.

Tested on: human serum pool
Experiment: Redox activity (oxy score from TOS, PAB, TAS, SHG) in vitro in human serum pool
Conditions: 37 °C, median (interquartile range); for Oxy score (OS), 2 h incubation / Oxy score (OS), 24 h incubation: without TBH; for Oxy score (OS), 2 h incubation: average of five concentrations; for Oxy score (OS), 2 h incubation, TBH added / Oxy score (OS), 24 h incubation, TBH added: with TBH added
Method: The remains of the serum samples were taken from healthy subjects after biochemical analysis; these subjects participated in regular medical examinations at the Military Medical Academy in Belgrade and consented to the formation of a serum pool. Neither the patients’ data nor their identities were used. Serum pool samples were prepared and aliquoted (450 µL portions) according to the routine procedure for in-house controle samples and preserved at the -80 °C until analysis. Five serial dilutions of the tested compounds (concentrations: 1000 µM, 500 µM, 250 µM, 125 µM and 62.5 µM) were added alone (50 µL) or in combination (25 µL) with oxidant TBH (25 µM) into 450 µL of serum. The compounds were dissolved in dimethyl sulfoxide (DMSO) for stock solution (1000 µM), while a PBS buffer (phosphate buffered saline) pH = 7.4 was used for serial dilutions (500 µM, 250 µM, 125 µM and 62.5 µM). Deionized water was used as a blank. DMSO and buffer pH = 7.4 were used as a control, while trolox solution (2 mmol/L) was used as a standard. All samples were incubated in duplicate for 2 h and 24 h at 37 °C.
Oxidative stress parameters (total antioxidative status (TAS), total oxidative status (TOS), total concentration of sulfhydryl group (SHG) and prooxidative–antioxidative balance (PAB)) were determined in order to calculate prooxidative score, antioxidative score and oxy score (OS). These parameters were determined in serum.
Total antioxidative status (TAS) was measured using Erel’s method, which was further optimized by Kotur-Stevuljevic et al. in 2015 [34]. ABTS (2,2-azino-bis(3-ethyl-benzthiazoline-6-sulfonic acid) is oxidized to a green-colored ABTS^+ cation by hydrogen peroxide in the acetate buffer (pH = 3.6). This stable cation is chromogen, and the presence of antioxidants in the samples causes its discoloration proportional to their concentrations. The absorbance was measured using a SPECTROstar Nano Microplate Reader (BMG Labtech, Ortenberg, Germany). The reaction was calibrated with Trolox and the TAS values are expressed as mmol trolox equivalent/L.
Total oxidative status (TOS) was measured using Erel’s method. Here, a ferrous ion-o-dianisidine complex is oxidized to ferric ion by the oxidants present in the sample. The ferric ion forms a colored complex with xylenol orange in an acidic environment and in the presence of glycerol. The intensity of the color of the formed complex is proportional to the total contents of oxidants in the sample. The absorbance was measured at 560 nm using a SPECTROstar Nano Microplate Reader (BMG Labtech, Ortenberg, Germany). The reaction was calibrated with hydrogen peroxide and the TOS values are expressed as µmol H2O2 equivalent/L.
Prooxidant–antioxidant balance (PAB) was measured according to procedures in the literature. Here, hydrogen peroxide is determined in the presence of antioxidants in the sample. Both of them (hydrogen peroxide and antioxidants (including uric acid)) react with chromogen TMB (3,3′,5,5′-tetramethylbenzidine) simultaneously. The hydrogen peroxide and chromogen reaction is enzymatically catalyzed with peroxidase, while the antioxidants–chromogen reaction is non-enzymatic. The intense blue color, produced as a result of the reaction between hydrogen peroxide and TMB, is decolorized by the reaction of the antioxidant with the TMB. The resulting color (result of two competitive reactions) is proportional to the ratio of antioxidants to prooxidants. The absorbance was measured at 450 nm. Different ratios of hydrogen peroxide and uric acid solutions were used to make a standard curve. The PAB results are expressed in hydrogen peroxide concentrations.
Total Sulfydryl Groups Content (SHG) was measured using a modified version of Ellman’s method. This method is based on the reaction between DTNB ([…]) and aliphatic thiol compounds in an alkaline environment (pH = 9.0). […]

SMILES | Oxy score (OS), 2 h incubation | Oxy score (OS), 24 h incubation | Oxy score (OS), 2 h incubation, TBH added | Oxy score (OS), 24 h incubation, TBH added
CC(C)(C)OO [TBH, tert-butyl hydroperoxide, reference compound] | 6.40 (4.66–11.59) | 6.43 (4.73–12.00) | – | –
CC(c1cc2ccccc2s1)N(O)C(N)=O (centres unmarked) [Zileuton, reference compound] | 2.60 (−7.86–7.54) | 3.61 (2.47–4.93) | 6.87 (6.52–7.18) | 8.80 (5.71–13.66)
Cc1ccc(-c2cc(C(F)(F)F)nn2-c2ccc(S(N)(=O)=O)cc2)cc1 [Celecoxib, reference compound] | 5.66 (2.92–12.90) | 2.77 (2.46–3.27) | 7.94 (6.97–8.45) | 4.95 (4.57–10.25)
Cc1cc(C(C)(C)C)c(O)c(C(C)(C)C)c1 [BHT, Butylated hydroxytoluene, reference compound] | 3.08 (2.73–3.26) | 2.62 (2.14–3.22) | 7.98 (6.77–8.81) | 4.51 (4.38–7.22)
NC(N)=O [Urea, urea, reference compound] | 3.48 (3.44–4.08) | 4.60 (3.62–6.02) | 8.11 (7.61–8.79) | 5.19 (4.96–14.00)
Cc1c(C)c2c(c(C)c1O)CCC(C)(C(=O)O)O2 (centres unmarked) [Trolox, reference compound] | 0.54 (−0.66–2.43) | 0.07 (−0.59–0.59) * | – | –
